Laboratory results as given in ChEMBL document CHEMBL1201862, “PubChem BioAssay data set” (2004).
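96-well plates; 48 h exposure; 5 concentrations. Endpoints by linear interpolation between flanking doses. Not reached: highest tested concentration assigned. GI50 = concentration required for 50% inhibition of growth.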 The source made the active and inactive calls. Rule as the data show it: active = GI50 up to about 1.1 µM and inactive = higher.

Legend:
Test in all cases: NCI-60 cell line screen, 48 h
[1] = system: UO-31
[2] = system: Malme-3M
[3] = system: SK-OV-3
[4] = system: TK-10
[5] = system: HOP-62
[6] = system: K562
[7] = system: KM12
[8] = system: HOP-92
[9] = system: DMS-114
[10] = system: HL-60
[11] = system: NCI-H23
[12] = system: HT-29
[13] = system: ACHN
[14] = system: KM-20L2
[15] = system: OVCAR-4
[16] = system: HCT-116
[17] = system: SK-MEL-2
[18] = system: RXF 393
[19] = system: HCC 2998
[20] = system: LOX IMVI
[21] = system: OVCAR-8
[22] = system: RPMI-8226
[23] = system: SF-295
[24] = system: CAKI-1
[25] = system: NCI-H226
[26] = system: SW-620
[27] = system: SNB-75
[28] = system: NCI-H522
[29] = system: OVCAR-3
[30] = system: M14
[31] = system: COLO 205
[32] = system: U-251
[33] = system: M19-MEL
[34] = system: OVCAR-5
[35] = system: SF-268
[36] = system: SR
[37] = system: CCRF-CEM
[38] = system: HCT-15
[39] = system: UACC-62
[40] = system: NCI-H460
[41] = system: DLD-1
[42] = system: SK-MEL-28
[43] = system: DMS-273
[44] = system: SN12C
[45] = system: SK-MEL-5
[46] = system: MOLT-4
[47] = system: EKVX
[48] = system: IGROV-1
[49] = system: UACC-257
[50] = system: NCI/ADR-RES
[51] = system: MCF7
[52] = system: PC-3
[53] = system: SF-539
[54] = system: A549
[55] = system: A498
[56] = system: MDA-MB-435
[57] = system: MDA-N
[58] = system: T47D
[59] = system: BT-549
[60] = system: SNB-19
[61] = system: Hs-578T
[62] = system: 786-0
[63] = system: MDA-MB-231
[64] = system: DU-145

`O=C1CN2C(Cl)(Cl)C2(c2ccccc2)c2cc(Cl)ccc2N1CC(F)(F)F` (stereo not drawn) was tested, and the GI50 [1] was 36.3 µM (inactive), the GI50 [2] was 22.7 µM (inactive) and the GI50 [3] was 51.2 µM (inactive). For the same compound, the GI50 [4] was 50.2 µM (inactive), the GI50 [5] was 22.6 µM (inactive) and the GI50 [6] was 27.8 µM (inactive). The GI50 [7] was 19.6 µM (inactive), the GI50 [8] was 13.6 µM (inactive) and the GI50 [9] was 27.2 µM (inactive). The GI50 [10] was > 10 µM (inactive), the GI50 [11] was 26.2 µM (inactive) and the GI50 [12] was 18.4 µM (inactive). The GI50 [13] was 33.7 µM (inactive), the GI50 [14] was 32.5 µM (inactive) and the GI50 [15] was 18.5 µM (inactive). The GI50 [16] was 21.6 µM (inactive), the GI50 [17] was 24 µM (inactive) and the GI50 [18] was 21.9 µM (inactive). For the same compound, the GI50 [19] was 16.6 µM (inactive), the GI50 [20] was 17.5 µM (inactive) and the GI50 [21] was 33.4 µM (inactive). The GI50 [22] was 32.4 µM (inactive), the GI50 [23] was 18.5 µM (inactive) and the GI50 [24] was 49.3 µM (inactive). The GI50 [25] was 26.2 µM (inactive), the GI50 [26] was 39.4 µM (inactive) and the GI50 [27] was 13 µM (inactive). For the same compound, the GI50 [28] was 17.4 µM (inactive), the GI50 [29] was 18.8 µM (inactive) and the GI50 [30] was 24 µM (inactive). For the same compound, the GI50 [31] was 19.5 µM (inactive), the GI50 [32] was 18.8 µM (inactive) and the GI50 [33] was 38.3 µM (inactive). For the same compound, the GI50 [34] was 56.1 µM (inactive), the GI50 [35] was 38.4 µM (inactive) and the GI50 [36] was 28.9 µM (inactive). For the same compound, the GI50 [37] was 18.7 µM (inactive), the GI50 [38] was 25.8 µM and the GI50 [39] was 56.1 µM (inactive). For the same compound, the GI50 [40] was 16.1 µM (inactive), the GI50 [41] was 16.4 µM (inactive) and the GI50 [42] was 22.6 µM (inactive). For the same compound, the GI50 [43] was 24.8 µM (inactive), the GI50 [44] was 16.9 µM (inactive) and the GI50 [45] was 17.9 µM (inactive). The GI50 [46] was 19.1 µM (inactive), the GI50 [47] was 32.2 µM (inactive) and the GI50 [48] was 26.8 µM (inactive). For the same compound, the GI50 [49] was 19.6 µM (inactive).
In the case of `CC(C)C(/C=C/c1ccc(Cl)cc1)=N\NC(=O)N/N=C(/C=C/c1ccc(Cl)cc1)C(C)C`, the GI50 [50] is reported as 26.7 µM (inactive), the GI50 [1] is reported as 40.9 µM (inactive) and the GI50 [2] is reported as 58.5 µM (inactive). For the same compound, the GI50 [3] was 32.4 µM (inactive), the GI50 [4] was 25.3 µM (inactive) and the GI50 [5] was 27.9 µM (inactive). For the same compound, the GI50 [6] was 47.8 µM (inactive), the GI50 [7] was > 100 µM (inactive) and the GI50 [8] was 21.7 µM (inactive). For the same compound, the GI50 [51] was > 100 µM (inactive), the GI50 [52] was > 100 µM (inactive) and the GI50 [53] was 16.7 µM (inactive). For the same compound, the GI50 [10] was > 100 µM (inactive), the GI50 [11] was 21.9 µM (inactive) and the GI50 [12] was 42.3 µM (inactive). The GI50 [13] was 29.2 µM (inactive), the GI50 [15] was 19.6 µM (inactive) and the GI50 [16] was 20.2 µM (inactive). For the same compound, the GI50 [17] was 26.4 µM (inactive), the GI50 [18] was 20.7 µM (inactive) and the GI50 [19] was 83.4 µM (inactive). The GI50 [54] was 19 µM (inactive), the GI50 [20] was > 10 µM (inactive) and the GI50 [21] was 19.4 µM (inactive). The GI50 [22] was > 100 µM (inactive), the GI50 [23] was 22.9 µM (inactive) and the GI50 [55] was 18.1 µM (inactive). For the same compound, the GI50 [24] was 18.5 µM (inactive), the GI50 [25] was 30.8 µM (inactive) and the GI50 [26] was 82 µM (inactive). For the same compound, the GI50 [27] was 21.7 µM (inactive), the GI50 [28] was > 10 µM (inactive) and the GI50 [29] was 19.6 µM (inactive). The GI50 [30] was 24.2 µM (inactive), the GI50 [56] was 30.1 µM (inactive) and the GI50 [57] was 36.6 µM (inactive). The GI50 [31] was 45.3 µM (inactive), the GI50 [32] was 16.9 µM (inactive) and the GI50 [58] was 40.8 µM (inactive). For the same compound, the GI50 [34] was > 100 µM (inactive), the GI50 [35] was 20 µM (inactive) and the GI50 [59] was 34.4 µM (inactive). The GI50 [36] was 30.8 µM (inactive), the GI50 [37] was 46.5 µM (inactive) and the GI50 [38] was 71.4 µM. The GI50 [39] was 35.5 µM (inactive), the GI50 [40] was 23 µM (inactive) and the GI50 [60] was 19.8 µM (inactive). The GI50 [42] was 50.9 µM (inactive), the GI50 [61] was 20.1 µM (inactive) and the GI50 [44] was 18.4 µM (inactive). For the same compound, the GI50 [45] was 64.6 µM (inactive), the GI50 [46] was 48.8 µM (inactive) and the GI50 [62] was 17.6 µM (inactive). For the same compound, the GI50 [47] was 21.4 µM (inactive), the GI50 [63] was 22.3 µM (inactive) and the GI50 [48] was 28.8 µM (inactive). The GI50 [64] was > 100 µM (inactive) and the GI50 [49] was 57.5 µM (inactive).
